Where two headings read alike, the source gives them in different places.
Tests used:
[1] = test system: linear pBR322 DNA; test: DNA cross-linking, electrophoretic assay (Hartley et al.); assay type: biochemical; settings: 2 h at 37° C., pH 7.2
Experimental: The extent of DNA cross-linking induced by each PBD dimer was determined using the electrophoretic assay method of Hartley, et al. (Hartley, J. A., Berardini, M. D., and Souhami, R. L. (1991) Anal. Biochem. 193, 131-134) based on the principle that, following complete denaturation of linear pBR322 DNA (˜4,300 bp) to the single-stranded (SS) form, an interstrand cross-link results in renaturation to double-stranded (DS) in a neutral gel.
Closed-circular DNA was linearized with HindIII, then dephosphorylated and finally 5′-singly end-labelled using [γ^32P]-ATP and polynucleotide kinase. Reactions containing 30-40 ng of DNA and the test compound were carried out in aqueous TEOA (25 mM triethanolamine, 1 mM EDTA, pH 7.2) buffer at 37° C. in a final volume of 50 μl for 2 h. Reactions were terminated by addition of an equal volume of stop solution (0.6 M NaOAc, 20 mM EDTA, 100 μg/ml tRNA) followed by precipitation with ethanol. Following centrifugation, the supernatant was discarded and the pellet dried by lyophilization. […] Control non-denatured samples were re-suspended in 10 μl of non-denaturing buffer solution (0.6% sucrose, 0.04% bromophenol blue in aqueous TAE buffer [40 mM Tris, 20 mM acetic acid, 2 mM EDTA, pH 8.1]) and loaded directly onto the gel for comparison.
Electrophoresis was carried out for 14-16 h at 40 V using a 0.8% submerged agarose gel (20×25×0.5 cm) in TAE buffer. Gels were dried under vacuum for 2 h at 80° C. onto one layer each of Whatman 3MM and DE8I filter papers using a BioRad 583 gel dryer. Autoradiographs were obtained after exposure of Hyperfilm-MP film (Amersham plc, U.K.) to the dried gel for either 4 h with a screen (or over night, without a screen, to obtain a sharper image). Film bands were quantitated using a BioRad GS-670 imaging laser densitometer. Percentage cross-linking was calculated by measuring the total DNA in each lane (summed density for the double-stranded [DS] and single-stranded [SS] bands) relative to the amount of cross-linked DNA (density of DS band alone). A dose-response curve was derived by plotting drug concentration against the determined percentage level of cross-linked DNA which was then analysed to determine the concentration of test compound that results in 50% cross-linked plasmid DNA (XL50).

[2] = test system: K562 human chronic myeloid leukaemia cells; test: In vitro cytotoxicity, K562 cells, MTT assay; assay type: cell-based; settings: 1 h drug exposure, MTT after 4 days
Experimental: K562 human chronic myeloid leukaemia cells were maintained in RPM1 1640 medium supplemented with 10% fetal calf serum and 2 mM glutamine at 37° C. in a humidified atmosphere containing 5% CO2 and were incubated with a specified dose of drug for 1 h at 37° C. in the dark. The incubation was terminated by centrifugation (5 min, 300 g) and the cells were washed once with drug-free medium. Following the appropriate drug treatment, the cells were transferred to 96-well microtiter plates (10^4 cells per well, 8 wells per sample). Plates were then kept in the dark at 37° C. in a humidified atmosphere containing 5% CO2. The assay is based on the ability of viable cells to reduce a yellow soluble tetrazolium salt, 3-(4,5-dimethylthiazol-2-yl)-2,5-diphenyl-2H-tetrazolium bromide (MTT, Aldrich-Sigma), to an insoluble purple formazan precipitate. Following incubation of the plates for 4 days (to allow control cells to increase in number by approximately 10 fold), 20 μL of MTT solution (5 mg/mL in phosphate-buffered saline) was added to each well and the plates further incubated for 5 h. The plates were then centrifuged for 5 min at 300 g and the bulk of the medium pipetted from the cell pellet leaving 10-20 μL per well. DMSO (200 μL) was added to each well and the samples agitated to ensure complete mixing. The optical density was then read at a wavelength of 550 nm on a Titertek Multiscan ELISA plate reader, and a dose-response curve was constructed. For each curve, an IC50 value was read as the dose required to reduce the final optical density to 50% of the control value.

[3] = test system: approximately 60 human tumour cell lines; test: NCI60 cell screen, in vitro cytotoxicity, SRB assay; assay type: cell-based; settings: NCI 60 human tumour cell lines, 48 h continuous exposure
Experimental: The National Cancer Institute (NCI), Bethesda, Md., USA has available an in vitro cytotoxicity screen which consists of approximately 60 human tumour cell lines against which compounds are tested at a minimum of five concentrations each differing 10-fold. A 48 h continuous exposure protocol is used, where cell viability or growth is estimated with an SRB protein assay.
The test compounds were evaluated against approximately 60 human tumour cell lines. The NCI screening procedures were described in detail by Monks and co-workers (Monks, A et al., Journal of the National Cancer Institute, 1991, 83, 757). Briefly, cell suspensions were diluted according to the particular cell type and the expected target cell density (5000-40,000 cells per well based on cell growth characteristics), and added by pipette (100 μL) into 96-well microtitre plates. The cells were allowed a preincubation period of 24 h at 37° C. for stabilisation. Dilutions at twice the intended test concentration were added at time zero in 100 μL aliquots to the wells. The test compounds were evaluated at five 10-fold dilutions (10^−4, 10^−5, 10^−6, 10^−7 and 10^−[…]). The test compounds were incubated for 48 h in 5% CO2 atmosphere and 100% humidity. The cells were then assayed using the sulphorhodamine B assay. A plate reader was used to read the optical densities and a microcomputer processed the readings into GI50 values (in Moles), which is the dosage required to limit cell growth to 50%.

[4] = Alkali, read-out: XL50 (concentration that results in 50% cross-linked plasmid DNA), Alkali
[5] = Heat, read-out: XL50 (concentration that results in 50% cross-linked plasmid DNA), Heat

Compound	EC50 [1, 4]	EC50 [1, 5]	IC50 [2]	GI50 [3]
COc1cc2c(cc1OCCCNC(=O)c1cc(NC(=O)c3cc(NC(=O)c4cc(NC(=O)CCCOc5cc6c(cc5OC)C(=O)N5CCC[C@H]5C=N6)cn4C)cn3C)cn1C)N=C[C@@H]1CCCN1C2=O [(18) AT-235]	< 100 nM	230 nM	1510 nM	10 nM
COc1cc2c(cc1OCCCC(=O)Nc1cc(C(=O)NCCCNC(=O)c3cc(NC(=O)CCCOc4cc5c(cc4OC)C(=O)N4CCC[C@H]4C=N5)cn3C)n(C)c1)N=C[C@@H]1CCCN1C2=O [(15) AT-281]	–	–	340 nM	10 nM
COc1cc2c(cc1NC(=O)c1ccc(C(=O)Nc3cc4c(cc3OC)C(=O)N3CCC[C@H]3C=N4)n1C)N=C[C@@H]1CCCN1C2=O [(1) SJG-605, 1-Methyl-1H-pyrrole-2,5-dicarboxylic acid bis-[(11aS)(7-methoxy-5-oxo-1,2,3,11a-tetrahydro-5H-pyrrolo[2,1-c][1,4]benzodiazepin-8-yl)-amide]]	1300 nM	–	1200 nM	1000 nM
COc1cc2c(cc1NC(=O)c1cc(C(=O)Nc3cc4c(cc3OC)C(=O)N3CCC[C@H]3C=N4)n(C)c1)N=C[C@@H]1CCCN1C2=O [(2) SJG-604, 1-Methyl-1H-pyrrole-2,4-dicarboxylic acid bis-[(11aS)(7-methoxy-5-oxo-1,2,3,11a-tetrahydro-5H-pyrrolo[2,1-c][1,4]benzodiazepin-8-yl)-amide]]	3500 nM	–	23000 nM	31600 nM
COc1cc2c(cc1OCCCNC(=O)c1ccc(C(=O)NCCCOc3cc4c(cc3OC)C(=O)N3CCC[C@H]3C=N4)n1C)N=C[C@@H]1CCCN1C2=O [(13) AT-217]	350 nM	3800 nM	–	19000 nM
